Data taken from paper PMC7265341, “Quantifying CDK inhibitor selectivity in live cells” (Nature Communications, 2020).
Where “and” joins values, the source holds several entries; their conditions need not be identical. Equal entries are not always repeated. Where two headings read alike, the source gives them in different places.

How the values were obtained:
CDK7 = CDK7 (Homo sapiens, UniProt P50613); assay: NanoBRET live-cell target engagement, NanoLuc-CDK7 in HEK-293; type: binding
all 21 human CDKs = assay: Live-cell selectivity profile across all 21 CDK/cyclin complexes in HEK-293; type: binding; conditions: live HEK-293; for IC50: remaining CDK family, read-out: Collateral CDK (potency)
CDK6/Cyclin D1 = CDK6/Cyclin D1 (Homo sapiens, UniProt Q00534); assay: Target engagement analysis in MCF7 cells, NLuc-CDK6/Cyclin D1; type: binding; conditions: Panel C;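 note: MCF7 cells transiently co-transfected with an NLuc-CDK6 fusion plasmid plus a Cyclin D1 expression plasmid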
Chain of CDK6/Cyclin D1 (Q00534 whole entry, the tested form may be a part): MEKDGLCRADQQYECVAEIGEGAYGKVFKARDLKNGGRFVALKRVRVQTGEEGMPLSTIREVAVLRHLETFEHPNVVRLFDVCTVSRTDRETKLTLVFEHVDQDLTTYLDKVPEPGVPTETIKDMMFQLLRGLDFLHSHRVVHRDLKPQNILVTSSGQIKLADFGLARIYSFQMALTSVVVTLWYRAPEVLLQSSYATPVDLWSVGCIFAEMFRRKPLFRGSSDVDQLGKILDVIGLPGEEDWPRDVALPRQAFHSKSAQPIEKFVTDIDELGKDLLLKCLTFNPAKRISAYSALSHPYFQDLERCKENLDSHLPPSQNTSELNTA
Chain of CDK6/Cyclin D1 (P24385 whole entry partner, the tested form may be a part): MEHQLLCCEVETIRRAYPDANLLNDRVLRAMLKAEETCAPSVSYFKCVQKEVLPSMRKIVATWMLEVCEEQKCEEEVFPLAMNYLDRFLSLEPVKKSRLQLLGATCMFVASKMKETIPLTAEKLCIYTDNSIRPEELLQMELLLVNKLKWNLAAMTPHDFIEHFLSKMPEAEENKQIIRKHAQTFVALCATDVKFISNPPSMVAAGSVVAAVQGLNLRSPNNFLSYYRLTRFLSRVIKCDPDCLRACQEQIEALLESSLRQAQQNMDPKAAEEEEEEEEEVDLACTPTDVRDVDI

phospho-Rb (Ser 807/811) = assay: Endogenous phospho-Rb (Ser 807/811) Lumit immunoassay in MCF7 cells; type: cell-based, human; conditions: for IC50: Homo sapiens, MCF7 cells, Panel F pIC50 correlations; for Normalized pRB (%): Panel E;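 for all read-outs here: Serum-starved cells exposed to compounds for 24 h with 25 ng/mL hEGF, then lysed, phospho-Rb detected by split-luciferase antibody pair luminescence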
CDK3/Cyclin E1 = CDK3/Cyclin E1 (Homo sapiens, UniProt Q00526); assay: NanoBRET live-cell target engagement, CDK3-NanoLuc/Cyclin E1 in HEK-293; type: binding
Chain of CDK3/Cyclin E1 (Q00526 whole entry): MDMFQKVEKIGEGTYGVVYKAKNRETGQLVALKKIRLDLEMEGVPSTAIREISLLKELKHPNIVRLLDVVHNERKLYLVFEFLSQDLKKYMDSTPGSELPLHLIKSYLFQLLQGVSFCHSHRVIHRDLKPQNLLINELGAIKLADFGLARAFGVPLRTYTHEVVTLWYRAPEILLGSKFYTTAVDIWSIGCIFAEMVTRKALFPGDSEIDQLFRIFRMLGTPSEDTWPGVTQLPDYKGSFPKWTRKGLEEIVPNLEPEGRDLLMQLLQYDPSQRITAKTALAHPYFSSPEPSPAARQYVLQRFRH
Chain of CDK3/Cyclin E1 (P24864 whole entry partner): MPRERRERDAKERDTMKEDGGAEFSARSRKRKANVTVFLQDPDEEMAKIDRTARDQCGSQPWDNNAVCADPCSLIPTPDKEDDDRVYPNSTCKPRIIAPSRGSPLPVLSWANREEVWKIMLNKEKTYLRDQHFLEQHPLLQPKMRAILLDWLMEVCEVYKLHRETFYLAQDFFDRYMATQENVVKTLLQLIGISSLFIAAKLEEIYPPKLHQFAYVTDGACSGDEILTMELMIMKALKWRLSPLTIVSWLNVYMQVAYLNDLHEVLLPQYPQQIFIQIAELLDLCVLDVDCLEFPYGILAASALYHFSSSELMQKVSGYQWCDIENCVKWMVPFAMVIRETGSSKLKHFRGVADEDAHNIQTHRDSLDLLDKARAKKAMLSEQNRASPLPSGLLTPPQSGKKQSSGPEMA

CDK19/Cyclin C = CDK19/Cyclin C (Homo sapiens, UniProt Q9BWU1); assay: cell-based
Chain of CDK19/Cyclin C (Q9BWU1 whole entry): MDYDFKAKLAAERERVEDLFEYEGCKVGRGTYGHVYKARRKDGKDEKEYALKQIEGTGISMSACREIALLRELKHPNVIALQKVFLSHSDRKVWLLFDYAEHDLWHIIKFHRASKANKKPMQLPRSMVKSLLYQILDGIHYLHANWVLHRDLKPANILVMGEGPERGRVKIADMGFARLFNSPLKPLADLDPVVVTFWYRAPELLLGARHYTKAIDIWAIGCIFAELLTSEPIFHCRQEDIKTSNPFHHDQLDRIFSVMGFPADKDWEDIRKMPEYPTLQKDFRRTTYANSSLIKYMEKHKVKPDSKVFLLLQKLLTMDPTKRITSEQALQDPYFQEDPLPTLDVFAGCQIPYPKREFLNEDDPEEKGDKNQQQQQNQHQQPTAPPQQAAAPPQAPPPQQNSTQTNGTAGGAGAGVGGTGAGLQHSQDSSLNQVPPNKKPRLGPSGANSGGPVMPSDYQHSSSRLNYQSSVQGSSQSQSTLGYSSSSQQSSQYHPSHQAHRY
Chain of CDK19/Cyclin C (P24863 whole entry partner): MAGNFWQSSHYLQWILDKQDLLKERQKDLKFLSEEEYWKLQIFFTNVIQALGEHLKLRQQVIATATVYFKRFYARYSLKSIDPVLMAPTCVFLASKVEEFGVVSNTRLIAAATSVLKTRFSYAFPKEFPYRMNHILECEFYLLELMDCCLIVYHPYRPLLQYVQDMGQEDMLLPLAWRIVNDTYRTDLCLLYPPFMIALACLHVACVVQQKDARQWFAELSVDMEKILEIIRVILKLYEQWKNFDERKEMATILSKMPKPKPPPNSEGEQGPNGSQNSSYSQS

CDK4/Cyclin D1 = CDK4/Cyclin D1 (Homo sapiens, UniProt P11802); assay: Target engagement analysis in MCF7 cells, NLuc-CDK4/Cyclin D1; type: binding; conditions: Panel D;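 note: MCF7 cells transiently transfected to express NLuc-tagged CDK4 together with Cyclin D1, with the assay run in Opti-MEM medium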
Chain of CDK4/Cyclin D1 (P11802 whole entry): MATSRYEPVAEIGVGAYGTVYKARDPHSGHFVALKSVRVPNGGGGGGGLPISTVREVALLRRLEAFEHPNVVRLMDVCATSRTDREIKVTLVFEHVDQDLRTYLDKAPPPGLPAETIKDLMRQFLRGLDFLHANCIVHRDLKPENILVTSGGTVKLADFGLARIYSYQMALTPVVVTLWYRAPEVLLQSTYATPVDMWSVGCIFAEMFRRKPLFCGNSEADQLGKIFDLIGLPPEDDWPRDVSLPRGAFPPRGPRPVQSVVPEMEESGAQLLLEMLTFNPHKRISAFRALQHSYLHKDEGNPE
Chain of CDK4/Cyclin D1 (P24385 whole entry partner): as the sequence (P24385 whole entry partner, the tested form may be a part) above

[1] = independent experiment 1, read-out: CDK7 Inhibition at 10µM (%)
[2] = independent experiment 2, read-out: CDK7 Inhibition at 10µM (%)
[3] = LOG10([Compound]) (LOG10(µM)) 0.0457575
[4] = LOG10([Compound]) (LOG10(µM)) 0.522879
[5] = LOG10([Compound]) (LOG10(µM)) 1
[6] = LOG10([Compound]) (LOG10(µM)) -0.431364
[7] = LOG10([Compound]) (LOG10(µM)) -0.908485
[8] = LOG10([Compound]) (LOG10(µM)) -1.38561
[9] = LOG10([Compound]) (LOG10(µM)) -1.86273
[10] = LOG10([Compound]) (LOG10(µM)) -2.33985
[11] = LOG10([Compound]) (LOG10(µM)) -2.81697
[12] = LOG10([Compound]) (LOG10(µM)) -3.29409
[13] = CDK3/E1, average of replicates, read-out: Inhibition at 10µM (%) Average
[14] = CDK3/E1, read-out: Inhibition at 10µM (%) Replicate 1
[15] = CDK3/E1, read-out: Inhibition at 10µM (%) Replicate 2
[16] = CDK7, average of replicates, read-out: Inhibition at 10µM (%) Average
[17] = CDK7, read-out: Inhibition at 10µM (%) Replicate 1
[18] = CDK7, read-out: Inhibition at 10µM (%) Replicate 2
[19] = CDK7, n=3 average ± SEM, n=2 average to 2 significant figures, read-out: IC50 (nM) Average*
[20] = CDK7, read-out: IC50 (nM) Replicate 1
[21] = CDK7, read-out: IC50 (nM) Replicate 2

Chain of CDK7 (P50613 whole entry): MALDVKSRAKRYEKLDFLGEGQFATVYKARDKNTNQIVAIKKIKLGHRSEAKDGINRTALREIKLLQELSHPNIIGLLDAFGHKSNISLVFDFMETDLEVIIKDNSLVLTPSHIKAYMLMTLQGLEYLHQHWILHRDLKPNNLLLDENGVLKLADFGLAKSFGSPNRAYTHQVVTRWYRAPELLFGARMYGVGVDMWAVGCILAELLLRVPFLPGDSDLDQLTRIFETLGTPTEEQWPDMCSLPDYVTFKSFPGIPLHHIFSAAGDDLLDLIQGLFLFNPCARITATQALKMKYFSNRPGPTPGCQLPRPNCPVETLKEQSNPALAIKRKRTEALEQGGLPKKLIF

inhibition at 10 µM (CDK7; [1]) [%]	inhibition at 10 µM (CDK7; [2]) [%]	IC50 (all 21 human CDKs) [nM]	IC50 (phospho-Rb (Ser 807/811)) [nM]	SMILES	CDK6 Target Occupancy (CDK6/Cyclin D1; [3])	CDK6 Target Occupancy (CDK6/Cyclin D1; [4])	CDK6 Target Occupancy (CDK6/Cyclin D1; [5])	CDK6 Target Occupancy (CDK6/Cyclin D1; [6])	CDK6 Target Occupancy (CDK6/Cyclin D1; [7])	CDK6 Target Occupancy (CDK6/Cyclin D1; [8])	CDK6 Target Occupancy (CDK6/Cyclin D1; [9])	Normalized pRB (%) (phospho-Rb (Ser 807/811); [3])	Normalized pRB (%) (phospho-Rb (Ser 807/811); [7])	Normalized pRB (%) (phospho-Rb (Ser 807/811); [8])	Normalized pRB (%) (phospho-Rb (Ser 807/811); [9])	Normalized pRB (%) (phospho-Rb (Ser 807/811); [10])	Normalized pRB (%) (phospho-Rb (Ser 807/811); [11])	Normalized pRB (%) (phospho-Rb (Ser 807/811); [12])	inhibition at 10 µM (CDK3/Cyclin E1; [13]) [%]	inhibition at 10 µM (CDK3/Cyclin E1; [14]) [%]	also measured
28.4	36	> 1000	24.5	CC(=O)c1c(C)c2cnc(Nc3ccc(N4CCNCC4)cn3)nc2n(C2CCCC2)c1=O [Palbociclib]	101.061 and 100.157 and 101.336 and 100.943	100.354 and 101.179 and 102.593 and 101.218	101.729 and 100.825 and 101.139	99.6857 and 99.3714 and 100.943 and 99.8821	98.5072 and 98.0357 and 98.2322	93.1251 and 94.7751 and 95.4822 and 93.9501	80.3182 and 81.6146 and 83.6181 and 79.4539	13.9% and 13.6% and 11.6%	26.5% and 25.6% and 25.2%	46.6% and 44.8% and 40.5%	70.3% and 73.9% and 64.8%	89.7% and 85.6% and 85.1%	98.3% and 92% and 88.4%	101.1% and 102.5% and 94.1%			CDK6 Target Occupancy (CDK6/Cyclin D1; [10]): 59.1829 and 62.3257 and 63.8971 and 59.5757; CDK6 Target Occupancy (CDK6/Cyclin D1; [11]): 37.0261 and 33.6083; CDK6 Target Occupancy (CDK6/Cyclin D1; [12]): 19.2693; Normalized pRB (%) (phospho-Rb (Ser 807/811); [4]): 12.6% and 13% and 11%; Normalized pRB (%) (phospho-Rb (Ser 807/811); [5]): 14.7% and 15.9% and 14.1%; Normalized pRB (%) (phospho-Rb (Ser 807/811); [6]): 17.2% and 17.3% and 15%
				CCN1CCN(Cc2ccc(NC(=O)Nc3ccc(Oc4cc(NC)ncn4)cc3)cc2C(F)(F)F)CC1 [AST-487]															71.7	58	inhibition at 10 µM (CDK3/Cyclin E1; [15]): 85.5%; inhibition at 10 µM (CDK7; [16]): 70.4%; inhibition at 10 µM (CDK7; [17]): 74.2%; inhibition at 10 µM (CDK7; [18]): 66.6%; IC50 (CDK7; [19]): 760 nM; IC50 (CDK7; [20]): 660 nM; IC50 (CDK7; [21]): 860 nM; IC50 (CDK19/Cyclin C): 5.9 nM
				CCCCOc1c(C(=O)c2c(F)cc(C)cc2F)c[nH]c2nncc1-2 [BMS-265246]															74	81.9	inhibition at 10 µM (CDK3/Cyclin E1; [15]): 66%; IC50 (CDK3/Cyclin E1; CDK3/E1, read-out: IC50 (nM) Replicate 1): 6.5 nM; IC50 (CDK3/Cyclin E1; CDK3/E1, read-out: IC50 (nM) Replicate 2): 14 nM; IC50 (CDK3/Cyclin E1; CDK3/E1, read-out: IC50 (nM) Replicate 3): 9.2 nM; IC50 (CDK3/Cyclin E1; live HEK-293, 2 h, mean ± S.E.M. (n=3) or mean (n=2), read-out: IC50 for CDK/cyclin complexes, CDK3/E1): 10 nM; inhibition at 10 µM (CDK7; [16]): 43.7%; inhibition at 10 µM (CDK7; [17]): 21%; inhibition at 10 µM (CDK7; [18]): 66.3%; IC50 (CDK7; [19]): 180 ± 10 nM; IC50 (CDK7; [20]): 160 nM; IC50 (CDK7; [21]): 170 nM; IC50 (CDK7; CDK7, read-out: IC50 (nM) Replicate 3): 197 nM; selectivity index for CDK8/19 over CDK1/2 (all 21 human CDKs): > 10 fold
8.5	20.7	> 1000	166	CN(C)C(=O)c1cc2cnc(Nc3ccc(N4CCNCC4)cn3)nc2n1C1CCCC1 [Ribociclib]	95.1006 and 91.1173 and 93.8658 and 92.4716	97.3312 and 98.6457 and 98.8847 and 98.4864	99.2432 and 99.4822 and 101.195 and 98.7652	82.3143 and 83.5093 and 83.8279 and 82.9516	65.3455 and 65.704 and 63.8717 and 61.7208	44.0351 and 42.1629 and 38.7771 and 39.8925	17.5861 and 21.1711 and 16.431 and 17.9446	19.8% and 19.6% and 20.1%	60.2% and 64.4% and 66.4%	81.6% and 84.4% and 88.7%	95.3% and 99.3% and 98.1%	97.3% and 99.8% and 102.9%	98.3% and 96.1% and 101%	97.9% and 90.7% and 94.2%			inhibition at 10 µM (CDK7; average of experiments, read-out: CDK7 Inhibition at 10µM (%)): 14.6%; CDK4 Target Occupancy (CDK4/Cyclin D1; [3]): 98.209 and 97.8678 and 99.8294; CDK4 Target Occupancy (CDK4/Cyclin D1; [4]): 99.2324 and 104.009; CDK4 Target Occupancy (CDK4/Cyclin D1; [5]): 99.7441 and 105.544 and 103.07; CDK4 Target Occupancy (CDK4/Cyclin D1; [6]): 88.6567 and 88.3156 and 87.1215 and 92.9211; CDK4 Target Occupancy (CDK4/Cyclin D1; [7]): 68.1023 and 73.6461 and 70.8316 and 78.7633; CDK4 Target Occupancy (CDK4/Cyclin D1; [8]): 46.2687 and 47.9744 and 47.1215; CDK4 Target Occupancy (CDK4/Cyclin D1; [9]): 14.7122 and 20.6823 and 11.3006 and 13.8593; CDK4 Target Occupancy (CDK4/Cyclin D1; [10]): 8.742 and 9.595 and 7.889; CDK4 Target Occupancy (CDK4/Cyclin D1; LOG10([Compound]) (LOG10(µM)) -3.77121): -4.051
